Measurements taken from patent US20230399341A1, “7-PHENYL SUBSTITUTED 2-AMINOQUINAZOLINE INHIBITORS OF HPK1” (MERCK SHARP & DOHME LLC, priority 2020, published 2023).

Molecular target: T1, Human HPK1, catalytic domain (Homo sapiens, UniProt Q92918)
T1 sequence (Q92918 1-346): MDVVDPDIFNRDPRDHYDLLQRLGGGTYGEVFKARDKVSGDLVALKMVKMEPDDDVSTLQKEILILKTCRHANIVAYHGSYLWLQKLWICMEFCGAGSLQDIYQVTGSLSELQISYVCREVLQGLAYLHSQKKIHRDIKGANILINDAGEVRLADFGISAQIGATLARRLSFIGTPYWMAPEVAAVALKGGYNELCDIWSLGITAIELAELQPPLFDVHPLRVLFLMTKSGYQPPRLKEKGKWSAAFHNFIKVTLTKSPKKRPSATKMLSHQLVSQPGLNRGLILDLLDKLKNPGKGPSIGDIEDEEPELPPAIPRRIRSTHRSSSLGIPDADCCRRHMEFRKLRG
Experiment: HPK1-SLP76 TR-FRET Assay
Format: biochemical
Settings: 75 pM HPK1, ATP 10 uM, SLP76 10 nM, 30 min pre-incubation, 60 min reaction

| Compound | IC50 |
| --- | --- |
| Cc1c(-c2cc3nc(Nc4cc5c(cc4C(N)=O)CCN(C)C5)ncc3c(N)c2F)cnc2c1NCCO2 [Compound 2-87, 7-((5-amino-6-fluoro-7-(8-methyl-2,3-dihydro-1H-pyrido[2,3-b][1,4]oxazin-7-yl)quinazolin-2-yl)amino)-2-methyl-1,2,3,4-tetrahydroisoquinoline-6-carboxamide] | 100 nM |
| COc1cc2c(cc1Nc1ncc3c(N)c(F)c(-c4cnc5c(c4C)NCCO5)cc3n1)CCN(C)C2 [Compound 2-88, 6-fluoro-N2-(7-methoxy-2-methyl-1,2,3,4-tetrahydroisoquinolin-6-yl)-7-(8-methyl-2,3-dihydro-1H-pyrido[2,3-b][1,4]oxazin-7-yl)quinazoline-2,5-diamine] | 0.377 nM |
| Cc1c(-c2c(F)c(N)c3cnc(Nc4ccc(CS(C)(=O)=O)cc4)nc3c2Cl)cnc2c1NCCO2 [Compound 2-91, (+ or −)-8-chloro-6-fluoro-7-(8-methyl-2,3-dihydro-1H-pyrido[2,3-b][1,4]oxazin-7-yl)-N~2~- {4-[(methylsulfonyl)methyl]phenyl}quinazoline-2,5-diamine] | 1.32 nM |
| COc1cc2c(cc1Nc1ncc3c(N)c(F)c(-c4cnc5c(c4C)NCCO5)c(Cl)c3n1)CN(C)CC2 [Compound 2-94, (+ or −)-8-chloro-6-fluoro-N~2~-(6-methoxy-2-methyl-1,2,3,4-tetrahydroisoquinolin-7-yl)-7-(8-methyl-2,3-dihydro-1H-pyrido[2,3-b][1,4]oxazin-7-yl)quinazoline-2,5-diamine] | 5.77 nM |
| Cc1c(-c2c(F)c(N)c3cnc(Nc4ccc5c(c4)CN(C(C)C)CC5)nc3c2Cl)cnc2c1NCCO2 [Compound 2-96, (+ or −)-8-chloro-6-fluoro-7-(8-methyl-2,3-dihydro-1H-pyrido[2,3-b[1,4]oxazin-7-yl)-N~2~- [2-(propan-2-yl)-1,2,3,4-tetrahydroisoquinolin-7-yl]quinazoline-2,5-diamine] | 0.0825 nM |
| CNC(=O)c1ccc(Nc2ncc3c(N)c(F)c(-c4cnc5c(c4C)NCCO5)c(Cl)c3n2)c(OC)c1 [Compound 2-97, (+ or −)-4-{[5-amino-8-chloro-6-fluoro-7-(8-methyl-2,3-dihydro-1H-pyrido[2,3-b][1,4]oxazin-7-yl)quinazolin-2-yl]amino}-3-methoxy-N-methylbenzamide] | 0.679 nM |
| CNC(=O)c1ccc(Nc2ncc3c(N)c(F)c(-c4c(Cl)nc5c(c4C)NCCO5)c(Cl)c3n2)c(OC)c1 [Compound 2-98, (+ or −)-4-{[5-amino-8-chloro-7-(6-chloro-8-methyl-2,3-dihydro-1H-pyrido[2,3-b][1,4]oxazin-7-yl)-6-fluoroquinazolin-2-yl]amino}-3-methoxy-N-methylbenzamide] | 6.73 nM |
| Cc1c(-c2c(F)c(N)c3cnc(Nc4ccc5c(c4)CN(C)CC54CC4)nc3c2Cl)cnc2c1NCCO2 [Compound 2-100, (+ or −)-8-chloro-6-fluoro-7-(8-methyl-2,3-dihydro-1H-pyrido[2,3-b][1,4]oxazin-7-yl)-N~2~- (2′-methyl-2′,3′-dihydro-1′H-spiro[cyclopropane-1,4′-isoquinolin]-7′-yl)quinazoline-2,5-diamine] | 1.19 nM |
| COc1cc2c(cc1Nc1ncc3c(N)c(F)c(-c4cnc5c(c4C)NCCO5)c(Cl)c3n1)CN(C(C)C)CC2 [Compound 2-102, (+ or −)-8-chloro-6-fluoro-N~2~-[6-methoxy-2-(propan-2-yl)-1,2,3,4-tetrahydroisoquinolin-7-yl]-7-(8-methyl-2,3-dihydro-1H-pyrido[2,3-b][1,4]oxazin-7-yl)quinazoline-2,5-diamine] | 0.204 nM |
| Cc1c(-c2c(F)c(N)c3cnc(Nc4ccc(S(C)(=O)=O)cc4)nc3c2Cl)cnc2c1NCCO2 [Compound 2-103, (+ or −)-8-chloro-6-fluoro-7-(8-methyl-2,3-dihydro-1H-pyrido[2,3-b][1,4]oxazin-7-yl)-N~2~- [4-(methylsulfonyl)phenyl] quinazoline-2,5-diamine] | 0.0946 nM |
| COc1cc2c(cc1Nc1ncc3c(N)c(F)c(-c4cnc5c(c4C)NCCO5)c(Cl)c3n1)CN(C)CC2(C)C [Compound 2-104, 8-chloro-6-fluoro-N2-(6-methoxy-2,4,4-trimethyl-1,2,3,4-tetrahydroisoquinolin-7-yl)-7-(8-methyl-2,3-dihydro-1H-pyrido[2,3-b][1,4]oxazin-7-yl)quinazoline-2,5-diamine] | 0.795 nM |
| COc1cc2c(cc1Nc1ncc3c(N)c(F)c(-c4cnc5c(c4C)NCCO5)c(Cl)c3n1)CN(C(C)C)CC2 [Compound 2-106, (+ or −)-8-chloro-6-fluoro-N2-(2-isopropyl-6-methoxy-1,2,3,4-tetrahydroisoquinolin-7-yl)-7-(8-methyl-2,3-dihydro-1H-pyrido[2,3-b][1,4]oxazin-7-yl)quinazoline-2,5-diamine] | 5.76 nM |
| Cc1c(-c2c(F)c(N)c3cnc(Nc4cc5c(cc4F)CCN(C)C5)nc3c2Cl)cnc2c1NCCO2 [Compound 2-107, (+ or −)-8-chloro-6-fluoro-N2-(6-fluoro-2-methyl-1,2,3,4-tetrahydroisoquinolin-7-yl)-7-(8-methyl-2,3-dihydro-1H-pyrido[2,3-b][1,4]oxazin-7-yl)quinazoline-2,5-diamine] | 0.0862 nM |
| Cc1c(-c2c(F)c(N)c3cnc(Nc4ccc5c(c4)CN(C(C)C)CC5)nc3c2Cl)cnc2c1NCCO2 [Compound 2-112, 8-chloro-6-fluoro-N2-(2-isopropyl-1,2,3,4-tetrahydroisoquinolin-7-yl)-7-(8-methyl-2,3-dihydro-1H-pyrido[2,3-b][1,4]oxazin-7-yl)quinazoline-2,5-diamine] | 0.816 nM |
| Cc1c(-c2cc3nc(Nc4ccc(CS(=O)(=O)N5CCCC5)cc4)ncc3c(N)c2F)cnc2c1NCCO2 [Compound 2-115, 6-fluoro-7-(8-methyl-2,3-dihydro-1H-pyrido[2,3-b][1,4]oxazin-7-yl)-N~2~- {4-[(pyrrolidine-1-sulfonyl)methyl]phenyl} quinazoline-2,5-diamine] | 0.12 nM |

Compounds with a lower IC50, results first:

| IC50 | Compound |
| --- | --- |
| 0.0417 nM | CNC(=O)C1(c2ccc(Nc3ncc4c(N)c(F)c(-c5cnc6c(c5C)NCCO6)cc4n3)cc2)CCCC1 [Compound 2-83, 1-(4-((5-amino-6-fluoro-7-(8-methyl-2,3-dihydro-1H-pyrido[2,3-b][1,4]oxazin-7-yl)quinazolin-2-yl)amino)phenyl)-N-methylcyclopentane-1-carboxamide] |
| 0.0222 nM | Cc1c(-c2cc3nc(Nc4ccc(CS(C)(=O)=O)nc4)ncc3c(N)c2F)cnc2c1NCCO2 [Compound 2-84, 6-fluoro-7-(8-methyl-2,3-dihydro-1H-pyrido[2,3-b][1,4]oxazin-7-yl)-N2-(6-((methylsulfonyl)methyl)pyridin-3-yl)quinazoline-2,5-diamine] |
| 0.0117 nM | CCS(=O)(=O)Cc1ccc(Nc2ncc3c(N)c(F)c(-c4cnc5c(c4C)NCCO5)cc3n2)cc1 [Compound 2-89, N2-(4-((ethylsulfonyl)methyl)phenyl)-6-fluoro-7-(8-methyl-2,3-dihydro-1H-pyrido[2,3-b][1,4]oxazin-7-yl)quinazoline-2,5-diamine] |
| 0.0355 nM | COc1cc2c(cc1Nc1ncc3c(N)c(F)c(-c4cnc5c(c4C)NCCO5)c(Cl)c3n1)CN(C)CC2 [Compound 2-90, (+ and −)-8-chloro-6-fluoro-N~2~-(6-methoxy-2-methyl-1,2,3,4-tetrahydroisoquinolin-7-yl)-7-(8-methyl-2,3-dihydro-1H-pyrido[2,3-b][1,4]oxazin-7-yl)quinazoline-2,5-diamine] |
| 0.0399 nM | Cc1c(-c2c(F)c(N)c3cnc(Nc4ccc(CS(C)(=O)=O)cc4)nc3c2Cl)cnc2c1NCCO2 [Compound 2-92, (+ or −)-8-chloro-6-fluoro-7-(8-methyl-2,3-dihydro-1H-pyrido[2,3-b[1,4]oxazin-7-yl)-N~2~- {4-[(methylsulfonyl)methyl]phenyl}quinazoline-2,5-diamine] |
| 0.0589 nM | Cc1c(-c2c(F)c(N)c3cnc(Nc4ccc5c(c4)CN(C)CC5)nc3c2Cl)cnc2c1NCCO2 [Compound 2-95, (+ or −)-8-chloro-6-fluoro-7-(8-methyl-2,3-dihydro-1H-pyrido[2,3-b][1,4]oxazin-7-yl)-N~2~- (2-methyl-1,2,3,4-tetrahydroisoquinolin-7-yl)quinazoline-2,5-diamine] |
| 0.0528 nM | Cc1c(-c2c(F)c(N)c3cnc(Nc4ccc5c(c4)CN(C)CC54CC4)nc3c2C#N)cnc2c1NCCO2 [Compound 2-109, (+ or −)-5-amino-6-fluoro-2-((2′-methyl-2′,3′-dihydro-1′H-spiro[cyclopropane-1,4′-isoquinolin]-7′-yl)amino)-7-(8-methyl-2,3-dihydro-1H-pyrido[2,3-b][1,4]oxazin-7-yl)quinazoline-8-carbonitrile] |
| 0.0706 nM | Cc1c(-c2c(F)c(N)c3cnc(Nc4ccc5c(c4)CN(C)CC54CC4)nc3c2C)cnc2c1NCCO2 [Compound 2-110, (+ or −)-6-fluoro-8-methyl-N2-(2′-methyl-2′,3′-dihydro-1′H-spiro[cyclopropane-1,4′-isoquinolin]-7′-yl)-7-(8-methyl-2,3-dihydro-1H-pyrido[2,3-b][1,4]oxazin-7-yl)quinazoline-2,5-diamine] |
| 0.0199 nM | Cc1c(-c2c(F)c(N)c3cnc(Nc4ccc5c(c4)CN(C)CC54CC4)nc3c2Br)cnc2c1NCCO2 [Compound 2-111, (+ or −)-8-bromo-6-fluoro-7-(8-methyl-2,3-dihydro-1H-pyrido[2,3-b][1,4]oxazin-7-yl)-N~2~- (2′-methyl-2′,3′-dihydro-1′H-spiro[cyclopropane-1,4′-isoquinolin]-7′-yl)quinazoline-2,5-diamine] |
| 0.0654 nM | Cc1c(-c2cc3nc(Nc4ccc(CS(C)(=O)=O)c(F)c4)ncc3c(N)c2F)cnc2c1NCCO2 [Compound 2-114, 6-fluoro-N~2~-{3-fluoro-4-[(methanesulfonyl)methyl]phenyl}-7-(8-methyl-2,3-dihydro-1H-pyrido[2,3-b][1,4]oxazin-7-yl)quinazoline-2,5-diamine] |
